Laboratory results as given in ChEMBL document CHEMBL1125856, “The Interaction of Anhydroalditols with Sweet-Almond -glucosidase and Escherichia coli -galactosidase: implications for the design of potent glycosidase inhibitors” (Bioorg Med Chem Lett, 1991).

T1: Beta-glucosidase (Prunus avium) (UniProt Q43014)
T1 sequence (whole entry): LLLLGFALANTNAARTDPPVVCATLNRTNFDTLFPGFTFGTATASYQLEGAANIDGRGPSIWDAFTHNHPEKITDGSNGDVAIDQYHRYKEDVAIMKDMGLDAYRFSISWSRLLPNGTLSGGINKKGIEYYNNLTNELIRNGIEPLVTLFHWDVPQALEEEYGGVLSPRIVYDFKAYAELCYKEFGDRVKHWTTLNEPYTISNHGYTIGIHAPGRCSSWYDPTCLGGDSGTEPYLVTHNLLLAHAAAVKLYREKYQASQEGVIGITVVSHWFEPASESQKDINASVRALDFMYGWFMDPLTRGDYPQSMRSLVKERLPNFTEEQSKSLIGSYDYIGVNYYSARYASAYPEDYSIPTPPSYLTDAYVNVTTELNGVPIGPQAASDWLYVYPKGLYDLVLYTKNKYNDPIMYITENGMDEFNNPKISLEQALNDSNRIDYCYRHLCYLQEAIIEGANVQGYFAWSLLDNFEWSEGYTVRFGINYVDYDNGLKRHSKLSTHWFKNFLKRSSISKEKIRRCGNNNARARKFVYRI


Key:
Beta-galactosidase [1] = biological target: T2, Beta-galactosidase (Escherichia coli, UniProt Q8VNN2); experiment: Compound was evaluated for its binding affinity towards E-coli Beta-galactosidase
T2 sequence (Q8VNN2 whole entry): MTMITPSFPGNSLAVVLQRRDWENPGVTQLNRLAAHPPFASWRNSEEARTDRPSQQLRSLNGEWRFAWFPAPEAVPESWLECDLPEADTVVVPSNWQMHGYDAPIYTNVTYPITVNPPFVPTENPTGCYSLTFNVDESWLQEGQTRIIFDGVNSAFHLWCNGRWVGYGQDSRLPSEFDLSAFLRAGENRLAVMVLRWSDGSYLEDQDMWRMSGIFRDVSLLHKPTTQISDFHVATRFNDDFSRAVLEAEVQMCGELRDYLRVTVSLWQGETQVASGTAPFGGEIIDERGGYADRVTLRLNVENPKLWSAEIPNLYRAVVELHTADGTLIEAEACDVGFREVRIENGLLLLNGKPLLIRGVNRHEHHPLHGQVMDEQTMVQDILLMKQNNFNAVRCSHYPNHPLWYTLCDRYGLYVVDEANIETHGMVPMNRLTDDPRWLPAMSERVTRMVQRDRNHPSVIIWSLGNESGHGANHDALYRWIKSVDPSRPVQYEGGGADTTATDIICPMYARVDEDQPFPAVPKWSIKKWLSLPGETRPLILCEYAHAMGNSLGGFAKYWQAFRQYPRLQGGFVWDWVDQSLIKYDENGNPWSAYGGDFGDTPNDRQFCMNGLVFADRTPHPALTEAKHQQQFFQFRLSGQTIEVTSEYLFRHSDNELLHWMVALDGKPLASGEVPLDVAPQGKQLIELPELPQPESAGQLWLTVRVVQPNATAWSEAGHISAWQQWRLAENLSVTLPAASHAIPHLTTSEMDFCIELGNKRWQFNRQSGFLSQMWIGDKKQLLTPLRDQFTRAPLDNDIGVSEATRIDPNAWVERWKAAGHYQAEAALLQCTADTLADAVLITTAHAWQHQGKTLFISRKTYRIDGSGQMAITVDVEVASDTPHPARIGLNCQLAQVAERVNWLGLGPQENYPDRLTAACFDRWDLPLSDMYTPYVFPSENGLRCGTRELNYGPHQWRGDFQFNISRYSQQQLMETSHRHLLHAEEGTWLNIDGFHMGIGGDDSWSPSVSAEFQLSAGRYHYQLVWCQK

[2] = Ratio of binding affinity towards E-coli beta - galactosidase to that of km/kcat was determined
[3] = Ratio of binding affinity towards E-coli beta - galactosidase to that of Michaelis-Menten constant against E-coli beta-galactosidase
[4] = biological target: T1, Beta-glucosidase (Prunus avium); experiment: (§1) Kinetic parameter Km/Kcat against Beta-glucosidase; settings: Prunus dulcis
[5] = biological target: T1, Beta-glucosidase (Prunus avium); experiment: as §1; set-up: unit not given here; settings: Prunus dulcis
Beta-galactosidase [6] = biological target: T2, Beta-galactosidase; experiment: Compound was evaluated for its binding affinity towards Beta-galactosidase
[7] = substrate: O[C@@H]1COC[C@H]1O; experiment: (§2) Michaelis-Menten constant against sweet almond Beta-glucosidase
[8] = substrate: OC[C@H]1OC[C@@H](O)[C@H]1O; experiment: as §2
[9] = substrate: OC[C@H]1OC[C@@H](O)[C@@H]1O; experiment: as §2
[10] = substrate: OC[C@H]1OC[C@H](O)[C@@H](O)[C@H]1O; experiment: as §2
[11] = substrate: OC[C@H]1OC[C@H](O)[C@@H](O)[C@@H]1O; experiment: as §2
[12] = substrate: O[C@H]1[C@H](O)COC[C@@H]1O; experiment: as §2

Molecule | Ki (Beta-galactosidase [1]) | Ki/(Km/Kcat) [2] | Ki/Km [3] | Km/Kcat [5] | further results
OC[C@H]1OC[C@@H](O)[C@H]1O | 1.9 mM | 1e+08 | 39.6 |  | 
OC[C@H]1OC[C@H](O)[C@@H](O)[C@H]1O | 7.4 mM | 3.9e+08 | 154 |  | 
OC[C@H]1OC[C@H](O)[C@@H](O)[C@@H]1O [1,5-Anhydrosorbitol] | 71 mM | 330 | 2.2 | 0.21 | Km/Kcat [4]: 0.019
O[C@H]1[C@H](O)COC[C@@H]1O | 85 mM | 85 | 15.6 | 1 | 
C[C@H]1OC[C@H](O)[C@@H](O)[C@H]1O |  | 630000 | 1.2 | 6.7e-05 | 
O[C@@H]1COC[C@H]1O | 77 mM | 77 | 5.1 | 1 | 
OC[C@H]1OC[C@@H](O)[C@@H]1O |  | 240 | 1.6 |  | Ki (Beta-galactosidase [6]): 51 mM
Beta-glucosidase (Prunus avium), Q43014 (protein) LLLLGFALANTNAARTDPPVVCATLNRTNFDTLFPGFTFGTATASYQLEGAANIDGRGPSIWDAFTHNHPEKITDGSNGDVAIDQYHRYKEDVAIMKDMGLDAYRFSISWSRLLPNGTLSGGINKKGIEYYNNLTNELIRNGIEPLVTLFHWDVPQALEEEYGGVLSPRIVYDFKAYAELCYKEFGDRVKHWTTLNEPYTISNHGYTIGIHAPGRCSSWYDPTCLGGDSGTEPYLVTHNLLLAHAAAVKLYREKYQASQEGVIGITVVSHWFEPASESQKDINASVRALDFMYGWFMDPLTRGDYPQSMRSLVKERLPNFTEEQSKSLIGSYDYIGVNYYSARYASAYPEDYSIPTPPSYLTDAYVNVTTELNGVPIGPQAASDWLYVYPKGLYDLVLYTKNKYNDPIMYITENGMDEFNNPKISLEQALNDSNRIDYCYRHLCYLQEAIIEGANVQGYFAWSLLDNFEWSEGYTVRFGINYVDYDNGLKRHSKLSTHWFKNFLKRSSISKEKIRRCGNNNARARKFVYRI |  |  |  |  | Km [7]: 3.1 mM; Km [8]: 15.7 mM; Km [9]: 2.5 mM; Km [10]: 15.7 mM; Km [11]: 2.5 mM; Km [12]: 3.1 mM
